target: T1, human H4 receptor (Homo sapiens, UniProt Q9H3N8); assay: [3H]Histamine binding on membranes of CHO cells stably expressing human H4 receptor; details: not given
T1 construct: expressed in transfected cells
Procedure: CHO cells stably expressing human H4 receptor were grown until sub-confluence and centrifuged at 300 g 15 minutes at 4° C. Pellets were resuspended in buffer I Tris-HCl 50 mM, MgCl2 10 mM, NaCl 140 mM, pH=7.4 supplemented by a 1/50 dilution of a mix of protease inhibitors. The obtained suspension is stirred gently and submitted to a […] exerted through a syringe. The cell lysate is then centrifuged at 300 g 15 minutes at 4° C. in order to eliminate nucleus and cell scraps. The obtained supernatant was then centrifuged at 48000 g for 30 minutes at 4° C. The final pellet is resuspended in buffer I with a potter homogenizer. Aliquots were frozen in liquid nitrogen and stored until use at −80° C. Protein content is measured by the Bradford method.
Defreezed membranes were diluted at a final concentration of 20 μg/180 μL/well in a binding buffer containing 50 mM Tris/HCl, 0.5 mM EDTA, pH=7.4 and distributed in 96 well polystyrene microplate. [^3H] […] Non specific binding was estimated in the presence of 10 μM BP1.2404 (JNJ 7777120). The reaction was terminated by filtration through GF/B filters pre-soaked 2 hours at 4° C. in […]. Filters were rinsed 3 times with 250 μl of ice cold incubation binding buffer.
The filter-bound radioactivity was measured in a liquid scintillation counter Microbeta TRILUX® with 50 μl of scintillation fluid.
The hH4 binding investigated by use of [^3H]

T1 sequence (Q9H3N8 whole entry): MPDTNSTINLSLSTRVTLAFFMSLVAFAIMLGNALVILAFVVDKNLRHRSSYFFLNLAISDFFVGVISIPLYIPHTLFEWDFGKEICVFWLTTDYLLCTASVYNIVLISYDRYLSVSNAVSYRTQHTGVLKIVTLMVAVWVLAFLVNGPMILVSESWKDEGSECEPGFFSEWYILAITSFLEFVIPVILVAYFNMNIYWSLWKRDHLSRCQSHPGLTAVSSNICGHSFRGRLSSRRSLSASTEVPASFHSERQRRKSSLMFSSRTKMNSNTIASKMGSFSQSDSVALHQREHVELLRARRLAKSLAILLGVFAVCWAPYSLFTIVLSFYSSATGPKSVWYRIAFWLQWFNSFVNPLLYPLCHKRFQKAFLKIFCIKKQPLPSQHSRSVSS

SMILES | Ki or IC50 activity class [nM]
CN1CCC(NC(c2cccc(OCc3cc(F)ccc3F)c2)c2nc3ccccc3[nH]2)CC1 (stereo not shown) [Example 149, {(1H-benzimidazol-2-yl)[3-(2,5-difluoro-benzyloxy)phenyl]methyl}(1-methylpiperidin-4-yl)amine] | < 30
CCSc1ccc(F)c(C(OC2CCN(C)CC2)c2nc3ccccc3[nH]2)c1 (stereo not shown) [Example 514] | < 30
COc1cccc(COc2cccc(C(OC3CCN(C)CC3)c3nc4ccccc4s3)c2)c1 (stereo not shown) [Example 185, 2-[[3-(3-methoxybenzyloxy)phenyl](1-methylpiperidin-4-yloxy)methyl]benzothiazole] | < 30
CN1CCC(OC(c2ccc3ccsc3c2)c2nc3ccccc3[nH]2)CC1 (stereo not shown) [Example 556, 2-[benzo[b]thiophen-6-yl(1-methylpiperidin-4-yloxy)methyl]-1H-benzimidazole] | < 30
CN1CCC(OC(c2cccc(N3CCC(F)(F)C3)c2)c2nc3ccccc3[nH]2)CC1 (stereo not shown) [Example 491] | < 1000
CN1CCC(OC(c2cccc(OCCCn3cncn3)c2)c2nc3ccccc3s2)CC1 (stereo not shown) [Example 348, 2-{(1-methylpiperidin-4-yloxy)[3-(3-[1,2,4]triazol-1-yl-propoxy)phenyl]methyl}benzothiazole] | < 1000
CC(C)Oc1cccc(C(NC2CCN(C)CC2)c2nc3ccccc3s2)c1 (stereo not shown) [Example 88, [benzothiazol-2-yl(3-isopropoxyphenyl)methyl](1-methylpiperidin-4-yl)amine] | < 30
CN1CCC(OC(c2cccc(C#CC3CN(C(=N)N)C3)c2)c2nc3ccccc3[nH]2)CC1 (stereo not shown) [Example 426, 3-{3-[(1H-benzimidazol-2-yl)(1-methylpiperidin-4-yloxy)methyl]phenylethynyl}azetidine-1-carboxamidine] | < 300
CN1CCC(OC(c2cccs2)c2nc3ccccc3s2)CC1 (stereo not shown) [Example 13, 2-[(1-methylpiperidin-4-yloxy)thiophen-2-ylmethyl]benzothiazole] | < 300
COC(=O)c1cccc(C(OC2CCN(C)CC2)c2nc3ccccc3s2)c1 (stereo not shown) [Example 199, 3-[benzothiazol-2-yl(1-methylpiperidin-4-yloxy)methyl]benzoic acid methyl ester] | < 300
CN1CCC(NC(c2cccc(OCCF)c2)c2nc3ccccc3[nH]2)CC1 (stereo not shown) [Example 180, {(1H-benzimidazol-2-yl)[3-(2-fluoro-ethoxy)phenyl]methyl}(1-methylpiperidin-4-yl)amine] | < 30
CCSc1cc(C(OC2CCN(C)CC2)c2nc3ccccc3[nH]2)ccc1C (stereo not shown) [Example 274, 2-[(3-ethylsulfanyl-4-methylphenyl)(1-methylpiperidin-4-yloxy)methyl]-1H-benzimidazole] | < 300
Cc1ccc(C(OC2CCN(C)CC2)c2nc3ccccc3[nH]2)cc1 (single isomer, unassigned) [Example 253, 2-[(1-methylpiperidin-4-yloxy)-p-tolylmethyl]-1H-benzimidazole] | < 30
CN1CCC(OC(c2cccc(C(=O)N(C)c3ccccc3)c2)c2nc3ccccc3s2)CC1 (stereo not shown) [Example 223, 3-[benzothiazol-2-yl(1-methylpiperidin-4-yloxy)methyl]-N-methyl-N-phenylbenzamide] | < 300
CN1CCC(OC(c2ccc3c(c2)OC(F)(F)O3)c2nc3ccccc3[nH]2)CC1 (stereo not shown) [Example 521] | < 1000
CN1CCC(OC(c2cccc(-c3ccc(NC(=O)OC(C)(C)C)cc3)c2)c2nc3ccccc3s2)CC1 (stereo not shown) [Example 143, {3′-[benzothiazol-2-yl(1-methylpiperidin-4-yloxy)methyl]biphenyl-4-yl}carbamic acid tert-butyl ester] | < 300
CN1CCC(OC(c2cccc(SCCCCN)c2)c2nc3ccccc3s2)CC1 (stereo not shown) [Example 359, 4-{3-[benzothiazol-2-yl(1-methylpiperidin-4-yloxy)methyl]phenylsulfanyl}butylamine] | < 30
CN1CCC(OC(c2cccc(-c3ccccc3CO)c2)c2nc3ccccc3s2)CC1 (stereo not shown) [Example 127, {3′-[benzothiazol-2-yl(1-methylpiperidin-4-yloxy)methyl]biphenyl-2-yl}methanol] | < 300
CN1CCC(OC(c2cccc(SCC(N)=O)c2)c2nc3ccccc3s2)CC1 (stereo not shown) [Example 263, 2-{3-[benzothiazol-2-yl(1-methylpiperidin-4-yloxy)methyl]phenylsulfanyl}acetamide] | < 1000

SMILES | Ki or IC50 activity class [nM]
CN1CCC(OC(c2cccc(Oc3cccnc3)c2)c2nc3ccccc3s2)CC1 (stereo not shown) [Example 448, 2-{(1-methylpiperidin-4-yloxy)[3-(pyridin-3-yloxy)phenyl]methyl}benzothiazole] | < 300
CSc1cccc(-c2cccc(C(OC3CCN(C)CC3)c3nc4ccccc4s3)c2)c1 (stereo not shown) [Example 128, 2-[(1-methylpiperidin-4-yloxy)(3′-methylsulfanylbiphenyl-3-yl)methyl]benzothiazole] | < 300
CN1CCC(OC(c2nc3ccccc3s2)c2ccccc2Cl)CC1 (stereo not shown) [Example 281, 2-[(2-Chlorophenyl)(1-methylpiperidin-4-yloxy)methyl]benzothiazole] | < 1000
CN1CCC(OC(c2cccc(OCc3cccc(N)c3)c2)c2nc3ccccc3s2)CC1 (stereo not shown) [Example 228, 3-{3-[benzothiazol-2-yl(1-methylpiperidin-4-yloxy)methyl]phenoxymethyl}phenylamine] | < 30
CN1CCC(OC(c2cccc(SCCCCCCN)c2)c2nc3ccccc3[nH]2)CC1 (stereo not shown) [Example 451] | < 300
CN1CCC(OC(c2cccc(SCc3ccccc3)c2)c2nc3ccccc3[nH]2)CC1 (stereo not shown) [Example 150, 2-[(3-benzylsulfanylphenyl)(1-methylpiperidin-4-yloxy)methyl]-1H-benzimidazole] | < 300
CCOCCOc1cccc(C(NC2CCN(C)CC2)c2nc3ccccc3[nH]2)c1 (stereo not shown) [Example 134, {(1H-benzimidazol-2-yl)[3-(2-ethoxyethoxy)phenyl]methyl}(1-methylpiperidin-4-yl)amine] | < 300
CN1CCC(OC(c2nc3ccccc3s2)c2c(F)cc(Cl)cc2F)CC1 (stereo not shown) [Example 532] | < 300
CN1CCC(OC(c2cccc(SCC(=O)NCCN)c2)c2nc3ccccc3[nH]2)CC1 (stereo not shown) [Example 436, N-(2-aminoethyl)-2-{3-[(1H-benzimidazol-2-yl)(1-methylpiperidin-4-yloxy)methyl]phenylsulfanyl}acetamide] | < 30
CN1CCC(OC(c2nc3ccccc3[nH]2)c2c(F)cccc2F)CC1 (stereo not shown) [Example 512] | < 30
CN1CCC(OC(c2cccc(Cl)c2)c2nc3ccccc3[nH]2)CC1 (stereo not shown) [Example 225, 2-[(3-chlorophenyl)(1-methylpiperidin-4-yloxy)methyl]-1H-benzimidazole] | < 300
CN1CCC(OC(c2cccc(-c3cccc(F)c3)c2)c2nc3ccccc3s2)CC1 (stereo not shown) [Example 139, 2-[(3′-fluorobiphenyl-3-yl)(1-methylpiperidin-4-yloxy)methyl]benzothiazole] | < 30
COC(=O)CSc1cccc(C(OC2CCN(C)CC2)c2nc3ccccc3s2)c1 (stereo not shown) [Example 160, {3-[benzothiazol-2-yl(1-methylpiperidin-4-yloxy)methyl]phenylsulfanyl}acetic acid methyl ester] | < 30
CNC1CCN(c2cccc(C(OC3CCN(C)CC3)c3nc4ccccc4s3)c2)C1 (stereo not shown) [Example 483] | < 300
CN1CCC(OC(c2cccc(N3CCC(=O)C3)c2)c2nc3ccccc3s2)CC1 (stereo not shown) [Example 443, 1-{3-[benzothiazol-2-yl(1-methylpiperidin-4-yloxy)methyl]phenyl}pyrrolidin-3-one] | < 30
CCCCc1cccc(C(OC2CCN(C)CC2)c2nc3ccccc3s2)c1 (stereo not shown) [Example 80, 2-[(3-butylphenyl)(1-methylpiperidin-4-yloxy)methyl]benzothiazole] | < 300
CN1CCC(OC(c2cccc(OCCNCC(=O)OC(C)(C)C)c2)c2nc3ccccc3[nH]2)CC1 (stereo not shown) [Example 361, (2-{3-[(1H-benzimidazol-2-yl)(1-methylpiperidin-4-yloxy)methyl]phenoxy}ethylamino)acetic acid tert-butyl ester] | < 1000
CN1CCC(OC(c2cccc(SCCn3nccn3)c2)c2nc3ccccc3s2)CC1 (stereo not shown) [Example 240, 2-{(1-methylpiperidin-4-yloxy)[3-(2-[1,2,3]triazol-2-yl-ethylsulfanyl)phenyl]methyl}benzothiazole] | < 300

same assay, conditions: human H4 receptor; evaluated in the GTPγ[35S] assay or in the [3H]histamine binding assay (not stated which per compound); Ki or IC50 class

SMILES | Ki or IC50 activity class [nM]
CN1CCC(OC(c2cccc(N3CCC(O)C3)c2)c2nc3ccccc3s2)CC1 (stereo not shown) [Example 407, 1-{3-[benzothiazol-2-yl(1-methylpiperidin-4-yloxy)methyl]phenyl}pyrrolidin-3-ol] | < 30
CN1CCC(OC(c2cccc(SCC=CCN)c2)c2nc3ccccc3[nH]2)CC1 (stereo not shown) [Example 474] | < 30

same assay, conditions: read-out: Activity (Ki or IC50)

SMILES | Ki [nM]
CN1CCC(OC(c2cccc(SCC3(CCO)CC3)c2)c2nc3ccccc3[nH]2)CC1 (stereo not shown) [Example 257] | < 1000

— US8802664B2 (Bioproject, priority 2010, dated 2014)
